Assay results taken from BindingDB's records for doi:10.1111/cbdd.12539 (Jagiellonian University Medical College, 2015).

Key:
[1] = biological target: T1, 5-hydroxytryptamine receptor 1A (Homo sapiens, UniProt P08908); assay: Radioligand Binding Assay; conditions: 25 °C
T1 sequence (P08908 whole entry): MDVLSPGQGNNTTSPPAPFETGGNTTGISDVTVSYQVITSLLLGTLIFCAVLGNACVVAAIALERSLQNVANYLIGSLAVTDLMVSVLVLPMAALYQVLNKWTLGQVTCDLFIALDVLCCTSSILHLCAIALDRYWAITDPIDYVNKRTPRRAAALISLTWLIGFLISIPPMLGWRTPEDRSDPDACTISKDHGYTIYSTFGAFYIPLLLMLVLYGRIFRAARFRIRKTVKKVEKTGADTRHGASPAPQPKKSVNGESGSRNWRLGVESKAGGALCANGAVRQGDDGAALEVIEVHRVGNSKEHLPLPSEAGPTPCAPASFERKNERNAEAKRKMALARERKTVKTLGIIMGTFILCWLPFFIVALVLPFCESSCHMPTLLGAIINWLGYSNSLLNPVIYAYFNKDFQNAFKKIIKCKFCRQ
Protocol: All assays were incubated in a total volume of […] in 96-well microtiter plates for 1 h at 37 °C, except for 5-HT1ARs which were incubated at room temperature for 1 h. The process of equilibration was terminated by rapidfiltration through Unifilter plates with a 96-well cell harvester and radioactivity retained on the filters was quantified on a Microbeta plate reader.

[2] = biological target: 5-hydroxytryptamine receptor 7 (Homo sapiens, UniProt P34969); assay: Radioligand Binding Assay; conditions: 25 °C
Chain of 5-hydroxytryptamine receptor 7 (P34969 whole entry): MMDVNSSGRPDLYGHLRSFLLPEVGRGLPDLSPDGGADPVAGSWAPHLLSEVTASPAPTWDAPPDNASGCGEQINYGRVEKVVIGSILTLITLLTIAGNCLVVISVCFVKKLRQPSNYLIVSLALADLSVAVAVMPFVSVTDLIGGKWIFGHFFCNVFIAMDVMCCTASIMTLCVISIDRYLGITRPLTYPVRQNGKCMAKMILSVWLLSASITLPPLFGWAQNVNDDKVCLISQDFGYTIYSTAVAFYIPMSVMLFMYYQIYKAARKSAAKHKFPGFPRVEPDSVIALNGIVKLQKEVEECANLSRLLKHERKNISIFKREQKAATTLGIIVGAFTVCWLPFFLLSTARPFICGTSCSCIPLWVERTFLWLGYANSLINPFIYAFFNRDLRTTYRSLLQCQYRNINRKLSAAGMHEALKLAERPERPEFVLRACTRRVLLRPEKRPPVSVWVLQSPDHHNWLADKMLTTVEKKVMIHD

Compound | Ki [1] [nM] | Ki [2] [nM]
O=C1NN=C(c2ccccc2Cl)NC1CCCCN1CCN(c2ccccc2F)CC1 (stereo not given) [3-(2-Chlorophenyl)-5-{4-[4-(2-fluorophenyl)piperazin-1-yl]butyl}-4,5-dihydro-1,2,4-triazin-6(1H)-one (17)] | 37 | 91
O=C1NN=C(C2CCCCC2)NC1CCCCN1CCN(c2cccc(Cl)c2Cl)CC1 (stereo not given) [3-Cyclohexyl-5-{4-[4-(2,3-dichlorophenyl)piperazin-1-yl]butyl}-4,5-dihydro-1,2,4-triazin-6(1H)-one (20)] | 32 | 5
CSc1ccccc1N1CCN(CCCCC2NC(C3CCCCC3)=NNC2=O)CC1 (stereo not given) [3-Cyclohexyl-5-{4-[4-(2-(methylthio)phenyl)piperazin-1-yl]butyl}-4,5-dihydro-1,2,4-triazin-6(1H)-one (19)] | 14 | 6
COc1ccccc1N1CCN(CCCCC2NC(C3CCCCC3)=NNC2=O)CC1 (stereo not given) [3-Cyclohexyl-5-{4-[4-(2-methoxyphenyl)piperazin-1-yl]butyl}-4,5-dihydro-1,2,4-triazin-6(1H)-one (18)] | 5 | 20
O=C1NN=C(c2ccccc2)NC1CCCCN1CCN(c2ccccc2)CC1 (stereo not given) [3-Phenyl-5-[4-(4-phenylpiperazin-1-yl)butyl]-4,5-dihydro-1,2,4-triazin-6(1H)-one (11)] | 79 | 95
O=C1NN=C(c2ccccc2)NC1CCCCN1CCN(c2cccc(Cl)c2Cl)CC1 (stereo not given) [5-{4-[4-(2,3-Dichlorophenyl)piperazin-1-yl]butyl}-3-phenyl-4,5-dihydro-1,2,4-triazin-6(1H)-one (16)] | 70 | 16
CSc1ccccc1N1CCN(CCCCC2NC(c3ccccc3)=NNC2=O)CC1 (stereo not given) [5-{4-[4-(2-(Methylthio)phenyl)piperazin-1-yl]butyl}-3-phenyl-4,5-dihydro-1,2,4-triazin-6(1H)-one (13)] | 28 | 17
O=C1NN=C(c2ccccc2)NC1CCCCN1CCN(c2ccccc2F)CC1 (stereo not given) [5-{4-[4-(2-Fluorophenyl)piperazin-1-yl]butyl}-3-phenyl-4,5-dihydro-1,2,4-triazin-6(1H)-one (14)] | 119 | 100
COc1ccccc1N1CCN(CCCCC2NC(c3ccccc3)=NNC2=O)CC1 (stereo not given) [5-{4-[4-(2-Methoxyphenyl)piperazin-1-yl]butyl}-3-phenyl-4,5-dihydro-1,2,4-triazin-6(1H)-one (12)] | 9 | 27
O=C1NN=C(c2ccccc2)NC1CCCCN1CCN(c2ccc(Cl)cc2)CC1 (stereo not given) [5-{4-[4-(4-Chlorophenyl)piperazin-1-yl]butyl}-3-phenyl-4,5-dihydro-1,2,4-triazin-6(1H)-one (15)] | 698 | 79
